In US20040106545A1, “Compounds and methods for modulating cell adhesion” (priority 1996, published 2004):
pIC50: −log10 of the molar value. Where two headings read alike, the source gives them in different places. Positions of bridges follow the written chain, without caps; N, C: chain ends. Residues, ends and D or L forms follow the SMILES beside them.

Columns and labels:
[1] = target: T1, chick N-cadherin (Gallus gallus, UniProt P10288); experiment: Neurite outgrowth of rat cerebellar neurons on N-cadherin expressing 3T3 monolayers (Example 15); assay type: cell-based; conditions: for inhibitory activity on N-cadherin dependent neurite outgrowth, structure/activity statements: Tables 8 and 9; for effect on neurite outgrowth over N-cadherin expressing cells (in words): 500 μg/mL
T1 construct: expressed in transfected cells; host or cells: 3T3 fibroblasts (monolayer); rat post-natal day 2-3 cerebellar neurons plated on top
T1 sequence (P10288 165-912): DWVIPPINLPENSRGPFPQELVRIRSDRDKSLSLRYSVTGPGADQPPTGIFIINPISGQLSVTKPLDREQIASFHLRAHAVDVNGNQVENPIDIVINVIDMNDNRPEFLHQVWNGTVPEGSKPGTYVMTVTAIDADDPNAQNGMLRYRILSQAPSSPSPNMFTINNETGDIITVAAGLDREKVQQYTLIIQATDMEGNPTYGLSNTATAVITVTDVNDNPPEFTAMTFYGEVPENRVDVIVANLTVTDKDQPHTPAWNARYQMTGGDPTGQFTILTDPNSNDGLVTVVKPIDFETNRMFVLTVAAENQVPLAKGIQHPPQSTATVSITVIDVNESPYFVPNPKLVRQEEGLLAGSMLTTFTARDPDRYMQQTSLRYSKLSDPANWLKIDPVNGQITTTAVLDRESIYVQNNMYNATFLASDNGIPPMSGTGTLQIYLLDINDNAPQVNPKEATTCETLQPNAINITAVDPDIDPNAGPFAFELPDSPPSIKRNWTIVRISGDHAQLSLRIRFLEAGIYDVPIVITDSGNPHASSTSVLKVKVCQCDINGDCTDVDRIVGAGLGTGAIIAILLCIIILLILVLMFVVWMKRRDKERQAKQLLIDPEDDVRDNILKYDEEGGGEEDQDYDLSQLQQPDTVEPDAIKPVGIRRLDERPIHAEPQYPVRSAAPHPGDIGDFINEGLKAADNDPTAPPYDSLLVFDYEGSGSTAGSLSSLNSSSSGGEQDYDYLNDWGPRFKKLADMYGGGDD

[2] = test system: SKOV3 cells; experiment: Disruption of human ovarian cancer cell (SKOV3) adhesion; assay type: cell-based; conditions: for activity in SKOV3 cells (cell adhesion): 0.01-1 mg/mL; for disruption of SKOV3 cell adhesion: 1 mg/mL media, within 24 hours
Procedure: FIGS. 37A and 37B are photographs illustrating the effect of N—Ac-CHAVC-Y—NH2 (SEQ ID NO:84) on SKOV3 cell adhesion. A confluent culture of SKOV3 cells was briefly trypsinated and counted using a hemacytometer. The cells were diluted to 5×10^3/mL in MEM (Gibco BRL) containing 10% FBS (Wisent). A 10 mg/mL solution of peptide was added directly to the media at a concentration of 1 mg/mL. The plate was incubated in a humidified chamber at 37° C. for 24 hours in 5% CO2. Morphological changes were evaluated after 24 hours.
The human ovarian cancer cell line SKOV3 (ATCC #HTB-77) expresses N-cadherin. SKOV3 cells were cultured in a modified MEM-based media containing 10% FCS. Cells were grown in T-250 culture flasks and maintained by periodic subculturing. Cyclic peptides were tested on cells grown in individual wells of 96-well culture dishes (surface area of each well was 0.32 cm^2). Cells were harvested from flasks and seeded at a density of 50,000 cells per well in 0.1 mL media containing the cyclic peptides at concentrations of 1, 0.1, or 0.01 mg/mL, or in the absence of cyclic peptide. Media control wells were also established. Cultures were evaluated periodically by microscopic examination under both bright field and phase contrast conditions. Cultures were maintained for 48 hours.

[3] = test system: PC-3; experiment: Cytotoxicity, MTT assay, PC-3; assay type: cell-based, human
Procedure, shortened: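 Peptide concentrations reached 100 μM. Both an MTT cytotoxicity read-out and ^3H-thymidine incorporation for proliferation were used.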

| Structure (SMILES) | inhibitory activity on N-cadherin dependent neurite outgrowth, structure/activity statements [1] | activity in SKOV3 cells (cell adhesion) [2] | pIC50 [3] | effect on neurite outgrowth over N-cadherin expressing cells (in words) [1] | disruption of SKOV3 cell adhesion [2] | inhibition of N-cadherin dependent neurite outgrowth (in words) ([1]; 250 μg/mL) | activity on N-cadherin dependent neurite outgrowth (in words) ([1]; 125 micrograms/mL or below) | effect on the N-cadherin response ([1]; concentrations up to 62 μg/ml) | SKOV3 cell morphology ([2]; 0.5 or 1 mg/ml, 24-48 hours (figure legends)) | pIC50 ([3]; human) |
| --- | --- | --- | --- | --- | --- | --- | --- | --- | --- | --- |
| CC(=O)N[C@H]1CSSC[C@@H](C(N)=O)NC(=O)[C@H](CC(=O)O)NC(=O)[C@H](C(C)C)NC(=O)[C@H](C)NC(=O)[C@H](Cc2c[nH]cn2)NC(=O)[C@H](C)NC1=O [N—Ac—CAHAVDC—NH2, N-Ac-Cys-Ala-His-Ala-Val-Asp-Cys-NH2] (Ac-CAHAVDC-NH2; disulfide 1-7) | completely eliminated inhibitory activity | inactive | < 4.00 | – | – | – | – | – | – | – |
| CC(=O)N[C@H]1CSSC[C@@H](C(N)=O)NC(=O)[C@H](C(C)C)NC(=O)CNC(=O)[C@H](Cc2c[nH]cn2)NC1=O [N—Ac—CHGVC—NH2, reference compound] | – | – | < 4.00 | had no effect on neurite outgrowth | had no affect on cell adhesion | – | – | – | – | – |
| CC[C@H](C)[C@@H]1NC(=O)[C@H](CC(=O)O)NC(=O)[C@H](C(C)C)NC(=O)[C@H](C)NC(=O)[C@H](Cc2c[nH]cn2)NC(=O)[C@H](C)NC(=O)[C@@H](NC(C)=O)CSSC[C@@H](C(N)=O)NC1=O (Ac-CAHAVDIC-NH2; disulfide 1-8) | reduced, but did not eliminate, the activity | inactive | < 4.00 | – | – | potent inhibitors of neurite outgrowth | lost activity | – | – | – |
| CC(=O)N[C@H]1CSSC[C@@H](C(N)=O)NC(=O)[C@H](C(C)C)NC(=O)[C@H](C)NC(=O)[C@H](Cc2c[nH]cn2)NC1=O [N—Ac—CHAVC—NH2, N-Ac-Cys-His-Ala-Val-Cys-NH2] | – | – | – | inhibition of neurite outgrowth | disrupted SKOV3 cell adhesion | – | – | no significant effect on the N-cadherin response | SKOV3 cells retract from one another and round-up | < 4.00 |
